Read-outs that look alike come from different tables or passages of the source. Each block holds one molecule with its values, some of them ahead of it.
Columns and labels:
[1] = Solubility studies of benzimidazoles (triclabendazole, oxfendazole, albendazole, ricobendazole) in different organic solvents; assay type: physicochemical
Protocol: As a comparison trials were conducted to determine the solubility of various members of the benzimidazole family in different solvents.
But more importantly it was discovered that triclabendazole is extremely soluble in 2-pyrrolidone and PEG 400 with more than 500 mg of triclabendazole capable of being dissolved in a ml of these solvents. This is particularly advantageous as it allows for formulations of low volume to be formulated for delivery to cattle and other animals.

[2] = Solubility studies of triclabendazole in different alcohols; assay type: physicochemical
[3] = solvents such as benzyl alcohol, propylene glycol, NMP, 2-pyrollidone, PEG, glycerol formal and butyl dioxitol

Compound: COC(=O)Nc1nc2ccc([S+]([O-])c3ccccc3)cc2[nH]1 (centres unmarked) [oxfendazole]
Solubility (in words) [1]: either insoluble or so insignificantly soluble

Compound: CCCSc1ccc2nc(NC(=O)OC)[nH]c2c1 [albendazole]
Solubility (in words) [1, 3]: either insoluble or so insignificantly soluble

Compound: CCC[S+]([O-])c1ccc2[nH]c(NC(=O)OC)nc2c1 (centres unmarked) [ricobendazole]
Solubility (in words) [1, 3]: either insoluble or so insignificantly soluble

Solubility (in words) [1]: more soluble generally | Quantity dissolved in 10 ml solvent ([1]; in 10 ml 2-pyrrolidone, flowable in nature): 10.0 g (flowable | Quantity dissolved in 10 ml solvent ([1]; in 10 ml Benzyl Alcohol, max solubility): 5.0 g (Max | Quantity dissolved in 10 ml solvent ([1]; in 10 ml DGBE (butyl dioxitol), max solubility): 2.0 g (Max | Quantity dissolved in 10 ml solvent ([1]; in 10 ml Glyceryl Formal, max solubility): 1 g (Max | Quantity dissolved in 10 ml solvent ([1]; in 10 ml NMP, max solubility): 4.5 g (Max | Quantity dissolved in 10 ml solvent ([1]; in 10 ml PEG400, flowable in nature): 10.0 g (flowable | Quantity dissolved in 10 ml solvent ([1]; in 10 ml Propylene Glycol, max solubility): 1.5 g (Max | Amount dissolved ([1]; solvent Benzyl Alcohol, max solubility): 357.14 mg/mL | Amount dissolved ([1]; solvent DGBE (butyl dioxitol), max solubility): 166.66 mg/mL | Amount dissolved ([1]; solvent Glyceryl Formal, max solubility): 90.91 mg/mL | Amount dissolved ([1]; solvent NMP (N-methyl pyrrolidone), max solubility): 321.43 mg/mL | Amount dissolved ([1]; solvent Propylene Glycol, max solubility): 136.36 mg/mL | Amount dissolved ([2]; solvent 1-butanol): 117.5 mg/mL | Quantity dissolved in solvent ([2]; solvent 1-butanol): 2 gm/15 ml | Amount dissolved ([2]; solvent 1-hexanol): 117.5 mg/mL | Quantity dissolved in solvent ([2]; solvent 1-hexanol): 2 gm/15 ml | Amount dissolved ([2]; solvent Ethyl alcohol): 88.88 mg/mL | Quantity dissolved in solvent ([2]; solvent Ethyl alcohol): 2 gm/20 ml | Amount dissolved ([2]; solvent Isopropyl alcohol): 117.5 mg/mL | Quantity dissolved in solvent ([2]; solvent Isopropyl alcohol): 2 gm/15 ml | Amount dissolved ([2]; solvent Methyl alcohol): 88.88 mg/mL | Quantity dissolved in solvent ([2]; solvent Methyl alcohol): 2 gm/20 ml
Compound: CSc1nc2cc(Cl)c(Oc3cccc(Cl)c3Cl)cc2[nH]1 [triclabendazole, 5-Chloro-6-(3,3-dichlorophenoxy)-2-methylthio-1H-benzimidazole]

Source: patent US20080249153A1, “ANTHELMINTIC FORMULATIONS” (priority 2005, published 2008)
